The record followed here is patent US11603515B2, “Cell culture substrate, cancer cell aggregate and method for manufacturing same using said substrate, and drug screening method using said cancer cell aggregate” (NATIONAL UNIVERSITY CORPORATION HOKKAIDO UNIVERSITY, priority 2017, dated 2023).

In this test the test system is microtumor consisting of PCI-55 cells. As to the kind of experiment: Evaluation of anticancer agent using microtumors (morphological change and molecular expression). The test is classed as cell-based, human. How it is done:
A total of six types of cell culture substrates with Roughness (+) or Roughness (−) of 30, 95, or 300 μm in spot diameter were used to culture human pancreatic ductal adenocarcinoma cell line PCI-55. Immediately before culturing the cells, each of the cell culture substrates was immersed in distilled water for about 30 minutes to detach the polyparaxylene layer. Then, the cell culture substrate was washed using water, sterilized with 70% ethanol, and air dried. The cell culture substrate was then fixed to the inner bottom of a culture dish (Asnol petri dish, AS ONE) with 40 mm in diameter and 13.5 mm in depth via Vaseline. After adding DMEM and washing the cell culture substrate for three times, 3×10^6 of PCI-55 cells suspended in 3 mL of DMEM were seeded on each cell culture substrate, and cultured at 37 degrees Celsius overnight to for 48 hours.
Morphological change in microtumors was observed, by adding nocodazole known as an anticancer agent with microtubule polymerization inhibitory activity to a culture medium of the microtumor consisting of PCI-55 cells formed on the cell culture substrate 1 in Example 2 so that the final concentration becomes 1 μM.

Where [1] appears, read: nocodazole 1 μM, 24 hours after treatment, fluorescence images (FIG. 49).

As to `COC(=O)Nc1nc2ccc(C(=O)c3cccs3)cc2[nH]1` [nocodazole], under setting [1], the “Cell-in-cell structure of the microtumor” value is “destructed”, the “Membranous expression of α-tubulin in the microtumor” value was “disappeared” and the “Release of cells from the inner microtumor” value is reported as “a number of viable cells were scattered so as to overflow from the inner microtumor”. Also, the “Adhesion of microtumor to the spot on the cell culture substrate / morphology” value (nocodazole final concentration 1 μM, PCI-55 microtumor on cell culture substrate 1, time-lapse DIC (FIG. 48)) was “prevented from adhering to the spot on the cell culture substrate, and formed spheroidal morphology”. Besides, where the note is “nocodazole treatment, Annexin V and EthD time-lapse images (FIG. 50)”, the “Accumulation of Annexin V on the surface of microtumor (dead cell phenotype)” value is on record as “reduced the accumulation of Annexin V on the surface of microtumor”.
